Where two headings read alike, the source gives them in different places. Some results are limits rather than exact numbers.

Data set [1] relates to X-inactivation. The settings on record: cited from earlier work.
The test system of data set [2] is polyglutamine induced cell death. The settings on record: McCampbell, 2001; cited from earlier work.
Data set [3] deals with adult offspring of Low LG maternal care. The settings on record: Weaver et al., 2004; cited from earlier work.
Data set [4] relates to HDAC. The following applies: Ookubo, 2013; cited from earlier work.
In data set [5] the test system is histone acetylation. The following applies: brief description of the histone acetylation mechanism; cited from earlier work.
The test system of data set [6] is MeCP2 KO mice. Further details: key: ↑: increased; ↓: decreased. The settings on record: Park, 2014; cited from earlier work.
Data set [7] concerns MeCP2^1lox mice. Further details: key: ↑: increased; ↓: decreased. The settings on record: Schaevitz, 2012, cited from earlier work.
For data set [8], the system named is FMR1 mRNA. The settings on record: Baicsi, 2008; cited from earlier work.
Data set [9] concerns Silenced MeCP2 in mouse neurons. Further details: key: ↑: increased; ↓: decreased. The following applies: Ma, 2015; cited from earlier work.
The subject of data set [10] is MeCP2^tm1HzO mice. Further details: key: ↑: increased; ↓: decreased. The settings on record: Ben-Zeev, 2011, cited from earlier work.
Data set [11] deals with MeCP2-mutated human fibroblasts. Briefly: Tubastatin A in MeCP2-mutated human fibroblasts. The following applies: 1 μM versus 5 mM butyrate.
The test system is the same in data set [12]. The settings on record: Gold, 2015; cited from earlier work.
For data set [13] the following is noted: radioactive DCA; exhaled in breath; cited from earlier work.
Data set [14] deals with Non-Hodgkin's Lymphoma. The settings on record: continued regime of DCA and thiamine; cited from earlier work.
The conditions of data set [15]: Flavin, 2010; cited from earlier work.
Data set [16] deals with MeCP2^tm1.1Bird mice. On the set-up: key: ↑: increased; ↓: decreased. The following applies: cited from earlier work.
The subject of data set [17] is Human females. On the set-up: key to Apneias: ↑: increased; ↓: decreased. The settings on record: cited from earlier work; for Apneias: Krajnc, 2013, Khwaja, 2014.
For data set [18], the system named is MeCP2^tm1.1Jae mice. On the set-up: key to Lifespan / Normal breathing / Motor function / Motility: ↑: increased; ↓: decreased. The following applies: cited from earlier work.
In data set [19] the test system is MecP2-null mice. On the set-up: key to Lifespan / Normal breathing / Motor function: ↑: increased; ↓: decreased. The settings on record: 2009, cited from earlier work.
The test system of data set [20] is R6/2 HD mice. The settings on record: cited from earlier work.
Data set [21] has as its system 16 month old mice. The settings on record: Peleg, 2010; cited from earlier work.
Data set [22] relates to animals. The settings on record: cited from earlier work.
The subject of data set [23] is Rats. The following applies: 30 days, diet with 28.5% of total calories supplied by Triacetin; cited from earlier work.
In data set [24] the test system is histones. The following applies: radiolabeled acetate; cited from earlier work.
The test system of data set [25] is ectopically methylated DNA. The settings on record: cells harvested 48 hours after treatment; cited from earlier work.

Turning to `CC(/C=C/C(=O)NO)=C\[C@@H](C)C(=O)c1ccc(N(C)C)cc1` [Trichostatin A], in [1] (even if Xist was turned off), the “X-inactivation of the cells” value is on record as “no change”. Further, in data set [2], the “ability to reduce cell death” value is “reduce cell death” and the “expression of AR [the mutant protein]” value is recorded as “slightly increased”. In addition, in [3], the acetylation result was “increased”, the “glucocorticoid receptor gene activation” value is “to levels indistinguishable from adult offspring of High LG maternal care”, the methylation entry is listed as “reduced” and the stress response result is reported as “reduced”.
With `Nc1nnc(-c2cccc(Cl)c2Cl)c(N)n1` [lamotrigine], the HDAC inhibitor activity result in data set [4] was “HDAC inhibitors”.
Take `CCCCCCC(=O)OCC(COC(=O)CCCCCC)OC(=O)CCCCCC` [Triheptanoin]: the “Histone acetylation (mechanism)” value in [5] is on record as “Metabolizes to Acetyl-CoA”. Moreover, in [6], the Lifespan entry is “↑ Lifespan, ↑ Social interaction,”; the Motor function entry is on record as “↑ Motor function”; the Social interaction entry is “↑ Lifespan, ↑ Social interaction,”.
For the molecule `CN(C)CCCN1c2ccccc2CCc2ccc(Cl)cc21` [clomipramine], the HDAC inhibitor activity result in data set [4] is recorded as “HDAC inhibitors”.
As to `[Cl-].[Li+]` [lithium chloride], the HDAC inhibitor activity result in data set [4] is reported as “HDAC inhibitors”.
On to `CC(=O)O[C@H](CC(=O)[O-])C[N+](C)(C)C` [Acetyl-L-Carnitine], for which the “Histone acetylation (mechanism)” value in [5] was “Increases Acetyl-CoA”. In addition, the Motor function result in data set [7] (Nag, 2007) is listed as “↑ Motor function”. Moreover, in data set [7], the Forepaw grip strength entry is given as “↑ Forepaw grip strength,”.
Consider `Nc1ncn([C@H]2C[C@H](O)[C@@H](CO)O2)c(=O)n1` [5-azadC, 5-aza-2′-deoxycytidine], for which the “FMR1 mRNA relative to normal control cells” value in [8] is recorded as “approximately 20%”. The “number of cells that lost their X-inactivation” value in data set [1] (Xist on) is reported as 19 × as many compared to controls; in [1] (combined with Xist deletion) it was 30 × as many compared to controls.
Consider `CNCC[C@H](Oc1cccc2ccccc12)c1cccs1` [duloxetine], for which the HDAC inhibitor activity result in data set [4] is reported as “HDAC inhibitors”.
`NC(=O)N1c2ccccc2C=Cc2ccccc21` [carbamazepine]: in data set [4], the HDAC inhibitor activity entry was “HDAC inhibitors”.
As to `CCCC(C)C1(CC)C(=O)NC(=O)NC1=O` (stereo not drawn) [Pentobarbatol], in data set [9], the “Synaptic transmission (calcium spikes)” value is given as “↑Synaptic transmission (calcium” and the dendrite growth result was “↑ dendrite growth,”.
In the case of Glatiramer acetate, the “Histone acetylation (mechanism)” value in [5] was “Contains acetate”. Further, the BDNF result is on record as “↑ BDNF” in data set [10] and “increase” in data set [10] (text).
For the molecule `CN1CCc2c(c3ccccc3n2Cc2ccc(C(=O)NO)cc2)C1` [Tubastatin A], in data set [11], the “HDACi activity relative to butyrate” value is on record as 5000 times. In addition, the “Histone acetylation (mechanism)” value in [5] is on record as “HDACi”. In addition, in data set [12], the “concentration at which it is a specific HDACi inhibitor (as low as)” value was 1 µM and the mictotubules depolymerization entry is on record as “Protects mictotubules from”.
Regarding `O=C(O)C(Cl)Cl` [DCA, dichloroacetate], in [13], the “fraction metabolized to carbon dioxide” value is on record as “up to 50%”. For the same molecule, in [14], the monthly blood tests result is reported as “normal”. In addition, in data set [15], the “toxicity of prolonged exposure” value was “peripheral neuropathy”.
Take `N[C@@H](Cc1ccc(O)c(O)c1)C(=O)O` [Levodopa]: the “Histone acetylation (mechanism)” value in data set [5] was “Histone acetylation,”. Further, the TH expressing neurons result in data set [16] (Roux, 2007, Szczesna, 2014) is given as “↑ TH expressing neurons”. For the same molecule, in data set [16] (Szczesna, 2014), the Hind-limb clasping entry was “↓”, the Lifespan entry is reported as “↑”, the Motor function result was “↑” and the Tremor entry is listed as “↓”.
For `O=C1CCc2c(ccc3ccccc23)O1` [Splitomycin], the “FMR1 mRNA relative to normal control cells” value in data set [8] is listed as “approximately 20%”.
As to `C[N+](C)(C)C[C@H](O)CC(=O)[O-]` [L-Carnitine], the “Histone acetylation (mechanism)” value in data set [5] is on record as “Increases Acetyl-CoA”. Moreover, in data set [17] (Ellaway, 1999), the “Hand Apraxia Scale assessment” value was “no effect on Hand Apraxia Scale” and the “Patient Well Being Index” value is “Improved Patient Well Being Index,”.
As for `CC1(C)O[C@@H]2[C@@H](CO[C@@]3(COS(N)(=O)=O)OC(C)(C)O[C@@H]23)O1` [Topiramate], the “Histone acetylation (mechanism)” value in data set [5] is given as “HDACi”. The Apneias result in [17] is on record as “↓ Apneias”.
As to `O=c1cc(-c2ccccc2)oc2c(O)c(O)ccc12` [7,8-dihydroxyflavone], in data set [18] (Johnson, 2011), the Lifespan entry is listed as “↑ Lifespan, ↑ Normal breathing,”; the Motor function result was “↑ Motor function”; the Normal breathing entry is reported as “↑ Lifespan, ↑ Normal breathing,”.
In the case of `CC[C@@H](C(N)=O)N1CCCC1=O` [levetriacetam], the HDAC inhibitor activity result in data set [4] is given as “HDAC inhibitors”.
On to IGF-1: Insulin-like Growth Factor 1, for which the “Histone acetylation (mechanism)” value in [5] is given as “Increases H3, H4 Histone”. Further, in [17], the Apneias entry is reported as “↓ Apneias”. In [19] (MeCP2 mutant mice, Tropea), the “9 separate measures of RTT symptoms in mice” value is “partially rescued”. For the same molecule, in data set [19] (Trpoea), the Lifespan result is “↑ Lifespan, ↑ Normal breathing,”; the Motor function result was “↑ Motor function”; the Normal breathing entry is “↑ Lifespan, ↑ Normal breathing,”.
`NC(=O)N1c2ccccc2CC(=O)c2ccccc21` [oxcarbazepine]: in data set [4], the HDAC inhibitor activity entry is “HDAC inhibitors”.
On to `O=C(CCCCCCC(=O)Nc1ccccc1)NO` [SAHA, Vorinostat], for which the Motor function entry in [20] (added to drinking water) is given as “marked improvement”. In data set [20] (mouse, in vivo), the blood-brain barrier crossing result is recorded as “crosses the blood-brain barrier” and the “histone acetylation in the brain” value is listed as “increases”. Further, the memory entry in [21] is “improves”. Besides, in data set [2], the “ability to reduce cell death” value is on record as “comparable to TSA” and the “expression of AR [the mutant protein]” value is “slightly increased”.
For the molecule `CC(=O)OCC(COC(C)=O)OC(C)=O` [Triacetin, glycerin triacetate], in data set [22] (CIREP, 2003), the metabolism entry was “quickly metabolized into glycerol and acetic acid”; the “toxicity in acute oral or dermal exposures” value is “not toxic”. For the same molecule, the “tolerated triacetin as a percentage of total diet” value in data set [22] (replacing conventional carbohydrates, Shapira, 1968) is recorded as “up to 20%”. In data set [23], the signs of toxicity result is given as “No overt signs of toxicity”.
`CC(=O)O` [acetate]: the “time for histones to become significantly acetylated” value in data set [24] was at most 15 min.
Regarding `CNCCCN1c2ccccc2CCc2ccccc21` [Desipramine], the TH expressing neurons result in data set [16] (Roux, 2007, Szczesna, 2014) is on record as “↑”. Moreover, the Apneas result in [16] (Roux, 2007) is listed as “↓”.
For the molecule `O=C(O)CCCc1ccccc1` [PBA, phenylbutyric acid], in [2], the “ability to reduce cell death” value was “reduction in cell death” and the “expression of AR [the mutant protein]” value was “slightly increased”.
`CCCC(CCC)C(=O)O` [Valproic acid]: the “Histone acetylation (mechanism)” value in [5] is “HDACi”. In addition, the “demethylation of ectopically methylated DNA” value in [25] is given as “stimulates active demethylation”. In addition, in data set [18] (Guo, 2014), the Motility entry is reported as “↑ Motility,”, the “gene expression in brain” value is “Normalized gene expression in brain” and the neurological symptoms result is reported as “Improved neurological symptoms,”. Further, the HDAC inhibitor activity entry in data set [4] is reported as “HDAC inhibitors”.
In the case of `CNC1(c2ccccc2Cl)CCCCC1=O` (stereo not drawn) [Ketamine], the “Histone acetylation (mechanism)” value in [5] is on record as “HDACi activity in the Nucleus”. For the same molecule, the “PPI of the ASR (cognitive function)” value in data set [18] (Kron, 2012) is on record as “Improved PPI of the ASR (cognitive”.

B1: Exogenous BDNF: Brain Derived Neurotrophic Factor protein, given exogenously (protein, UniProt P23560 129-247, looked up)
Neurotrophic factor BDNF: HSDPARRGELSVCDSISEWVTAADKKTAVDMSGGTVTVLEKVPVSKGQLKQYFYETKCNPMGYTKEGCRGIDKRHWNSQCRTTQSYVRALTMDSKKRIGWRFIRIDTSCVCTLTIKRGR
modifications: Neurotrophic factor BDNF
In the case of B1, in [18] (Kline, 2010, listed as exogenous BDNF), the “synaptic function in brainstem slices” value is “normalize”.

These data come from patent US10583106B2, “Method of treating cancer by oral administration of acetate composition comprising magnesium acetate, calcium acetate or ethylacetate” (priority 2015, dated 2020).
